Laboratory results taken from PMC6499371 (Chemical communications (Cambridge, England), 2019).
pIC50: −log10 of the molar value.

Target: T1, porcine trehalase (Sus scrofa, UniProt I3LIR5)
T1 sequence (I3LIR5 24-556): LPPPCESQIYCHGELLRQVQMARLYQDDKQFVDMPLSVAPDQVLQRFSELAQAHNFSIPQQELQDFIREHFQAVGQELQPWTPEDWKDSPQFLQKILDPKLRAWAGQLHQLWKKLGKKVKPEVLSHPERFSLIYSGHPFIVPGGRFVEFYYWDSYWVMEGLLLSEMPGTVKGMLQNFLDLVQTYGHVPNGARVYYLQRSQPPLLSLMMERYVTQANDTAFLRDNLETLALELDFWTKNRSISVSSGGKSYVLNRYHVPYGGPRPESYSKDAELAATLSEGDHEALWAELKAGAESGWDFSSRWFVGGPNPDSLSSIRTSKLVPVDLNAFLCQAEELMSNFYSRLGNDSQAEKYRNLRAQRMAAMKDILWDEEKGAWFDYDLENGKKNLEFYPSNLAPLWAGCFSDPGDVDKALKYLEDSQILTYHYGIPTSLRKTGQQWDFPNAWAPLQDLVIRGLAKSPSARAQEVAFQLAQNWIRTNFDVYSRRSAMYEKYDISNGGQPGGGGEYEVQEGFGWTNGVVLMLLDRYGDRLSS
Assay: UV spectrophotometric coupled assay of trehalose hydrolysis
Assay type: biochemical

Compound: OC[C@H]1O[C@H](O[C@H]2O[C@H](CO)[C@@H](O)[C@H](O)[C@H]2O)[C@@H](O)[C@@H](O)[C@@H]1O [compound 2, mannotrehalose]
- pIC50: 2.95
